What was measured:
[1] = system: JAK2, TYK2/p-STAT4 (Tyr693) activated by IL-12 in NK-92 cell line; experiment: IL-12-JAK2, TYK2/p-STAT4 (Tyr693) inhibition cellular assay; assay type: cell-based; details: for IC50: NK92, 0.5 h, NK-92 cells, IL-12 40 ng/ml, 30 min, read-out: Cellular assay pSTAT4/IL-12 IC50; for Cellular assay Selectivity fold (TYK2/JAK1): pSTAT4/IL-12 vs pSTAT3/IL-6 cellular IC50
Summary of the method: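 NK-92 cells were starved overnight without IL-2 and seeded at 5×10^4 per well in 1640 medium with 0.1% BSA. Lysate p-STAT4 (Tyr693) was measured by AlphaLISA SureFire, and IC50 was fitted with a 4-parameter logistic model.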

[2] = system: JAK1/p-STAT3(Tyr705) activated by IL-6 in TF-1 cell line; experiment: IL-6-JAK1/p-STAT3(Tyr705) inhibition cellular assay; assay type: cell-based; details: Homo sapiens, 0.5 h; TF-1 cells, IL-6 50 ng/ml, 30 min; read-out: Cellular assay pSTAT3/IL-6 IC50
[3] = molecular target: T1, JAK1-JH2 protein (aa 561-860, in-house) (Homo sapiens, UniProt P23458); experiment: JAK1-JH2 biochemical assay (HTRF, blocking of JAK1-JH2 protein with its probe); assay type: binding; details: 1.17 nM recombinant JAK1-JH2, Probe 2
T1 construct: JAK1-JH2 protein (aa 561-860, in-house); made in house
T1 sequence (P23458 561-860): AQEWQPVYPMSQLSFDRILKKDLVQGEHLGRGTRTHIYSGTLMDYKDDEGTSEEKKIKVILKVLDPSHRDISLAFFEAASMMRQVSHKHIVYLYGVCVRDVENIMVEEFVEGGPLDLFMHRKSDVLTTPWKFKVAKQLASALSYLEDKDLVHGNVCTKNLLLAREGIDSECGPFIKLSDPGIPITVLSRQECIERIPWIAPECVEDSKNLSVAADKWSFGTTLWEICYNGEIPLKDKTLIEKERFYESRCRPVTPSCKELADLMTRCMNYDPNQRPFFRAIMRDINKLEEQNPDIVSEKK
Summary of the method: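 HTRF probe-displacement assay using recombinant human JAK1 pseudokinase domain (aa 561-860, 1.17 nM in pre-incubation step), pre-incubated 0.5 h at room temperature with 10-dose 5-fold compound series. Buffer: 20 mM HEPES pH 7.5, 10 mM MgCl2, 0.005% BSA, 2 mM DTT, 0.015% Brij-35. IC50 by four-parameter logistic fit of 615/665 nm ratio.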

[4] = molecular target: T2, TYK2-JH2 (aa 575-869, in-house) protein (Homo sapiens, UniProt P29597); experiment: TYK2-JH2 biochemical assay (HTRF, blocking of TYK2-JH2 protein with its probe); assay type: binding; details: for IC50: HTRF, 0.2 nM recombinant TYK2-JH2, Probe 1; for Biochemical assay Selectivity fold (TYK2/JAK1): TYK2-JH2 vs JAK1-JH2 biochemical IC50
T2 construct: TYK2-JH2 (aa 575-869, in-house) protein; made in house
T2 sequence (P29597 575-869): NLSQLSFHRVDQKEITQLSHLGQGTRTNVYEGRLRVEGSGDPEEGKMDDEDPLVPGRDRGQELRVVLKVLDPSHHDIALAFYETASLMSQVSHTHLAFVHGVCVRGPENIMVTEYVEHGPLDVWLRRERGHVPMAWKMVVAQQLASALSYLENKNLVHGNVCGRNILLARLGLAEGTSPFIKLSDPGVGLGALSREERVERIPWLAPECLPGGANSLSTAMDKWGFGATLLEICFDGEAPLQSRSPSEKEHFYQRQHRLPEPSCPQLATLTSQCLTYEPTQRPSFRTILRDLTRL
Summary of the method: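 Recombinant TYK2-JH2 (0.2 nM) pre-incubated with compounds (10 doses, 5-fold dilutions) 0.5 h at RT in HEPES pH 7.5 buffer with MgCl2, BSA, DTT, Brij-35; biotinylated probe (10 nM working solution, KD=10 nM) plus anti-6His Tb cryptate/streptavidin-XL665 added, 1 h RT. HTRF ratio read; IC50 from four-parameter logistic fit.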

| SMILES | IC50 [1] [nM] | IC50 [2] [µM] | IC50 [3] [nM] | IC50 [4] [nM] | Biochemical assay Selectivity fold (TYK2/JAK1) [4] [fold] | Cellular assay Selectivity fold (TYK2/JAK1) [1] [fold] |
| --- | --- | --- | --- | --- | --- | --- |
| CNC(=O)c1nnc(NC(=O)C2CC2)cc1Nc1nc2ccc(N3CCCC(N4CC(F)(F)C4)C3)cn2n1 (centres unmarked) [Example E13, 6-(cyclopropanecar-boxamido)-4-((6-(3-(3,3-difluoroazetidin-1-yl)piperidin-1-yl)-[1,2,4]triazolo[1,5-a]pyridin-2-yl)amino)-N-methylpyridazine-3-carboxamide] | 15.9 | > 10 | 2.6 | 0.047 | 55 | >629 |
| CNC(=O)c1nnc(NC(=O)C2CC2)cc1Nc1nc2ccc(N3CC(F)(F)C3)cn2n1 [Example E10, 6-(cyclopropanecar-boxamido)-4-((6-(3,3-difluoroazetidin-1-yl)-[1,2,4]triazolo[1,5-a]pyridin-2-yl)amino)-N-methylpyridazine-3-carboxamide] | 47 | > 10 | 3 | 0.15 | 20 | >212 |
| CNC(=O)c1nnc(NC(=O)C2CC2)cc1Nc1nc2ccc(N3CC(C)(C)C3)cn2n1 [Example E8, 6-(cyclopropanecar-boxamido)-4-((6-(3,3-dimethylazetidin-1-yl)-[1,2,4]triazolo[1,5-a]pyridin-2-yl)amino)-N-methylpyridazine-3-carboxamide] | 13.8 | > 10 | 3 | 0.044 | 68 | >724 |
| CNC(=O)c1nnc(NC(=O)C2CC2)cc1Nc1nc2ccc(N3CC(C)(N(C)C)C3)cn2n1 [Example E6] | 15.4 | 1.64 | 0.56 | 0.056 | 10 | 106 |
| CNC(=O)c1nnc(NC(=O)C2CC2)cc1Nc1nc2ccc(OC3CN(C(C)=O)C3)cn2n1 [Example C4, 4-((6-((1-acetylazetidin-3-yl)oxy)-[1,2,4]triazolo [1,5-a]pyridin-2-yl)amino)-6-(cyclopro-panecarbox-amido)-N-methyl-pyridazine-3-carboxamide] | 309 | > 10 | 1.2 | 0.08 | 15 | >32 |
| CNC(=O)c1nnc(NC(=O)C2CC2)cc1Nc1nc2ccc(N3CCC3)cn2n1 [Example E1, 4-((6-(azetidin-1-yl)-[1,2,4]triazolo[1,5-a]pyridin-2-yl)amino)-6-(cyclopropanecarboxamido)-N-methylpyridazine-3-carboxamide] | 13.3 | 6.33 | 1.6 | 0.047 | 34 | 475 |
| CNC(=O)c1nnc(NC(=O)C2CC2)cc1Nc1nc2ccc(P(C)(C)=O)cn2n1 [Example A5, 6-(cyclopropanecarboxamido)-4-((6-(dimethylphosphoryl)-[1,2,4]triazolo[1,5-a]pyridin-2-yl)amino)-N-methyl-pyridazine-3-carboxamide] | > 10000 | > 10 | 13 | 0.56 | 23 |  |
| CNC(=O)c1nnc(NC(=O)C2CC2)cc1Nc1nc2ccc(N3CC(N4CCCCC4)C3)cn2n1 [Example E14, 6-(cyclopropanecar-boxamido)-N-methyl-4-((6-(3-(piperidin-1-yl)azetidin-1-yl)-[1,2,4]triazolo [1,5-a]pyridin-2-yl)amino) pyridazine-3-carboxamide] | 42.6 | > 10 | 1.8 | 0.11 | 16 | >234 |

Second part, led by results:

| IC50 [1] [nM] | IC50 [2] [µM] | IC50 [3] [nM] | IC50 [4] [nM] | Biochemical assay Selectivity fold (TYK2/JAK1) [4] [fold] | SMILES | Cellular assay Selectivity fold (TYK2/JAK1) [1] [fold] |
| --- | --- | --- | --- | --- | --- | --- |
| 95 | > 10 | 2.6 | 0.12 | 22 | CNC(=O)c1nnc(NC(=O)C2CC2)cc1Nc1nc2ccc(N3CC(N(C)S(C)(=O)=O)C3)cn2n1 [Example F1, 6-(cyclopropanecarboxamido)-N-methyl-4-((6-(3-(N-methylmethylsulfonamido)azetidin-1-yl)-[1,2,4]triazolo[1,5-a]pyridin-2-yl)amino)pyridazine-3-carboxamide] | >105 |
| 9.05 | > 10 | 1.8 | 0.076 | 24 | CNC(=O)c1nnc(NC(=O)C2CC2)cc1Nc1nc2ccc(N3CC(C(C)O)C3)cn2n1 (centres unmarked) [Example G1, 6-(cyclopropanecarboxamido)-4-((6-(3-(1-hydroxyethyl)azetidin-1-yl)-[1,2,4]triazolo[1,5-a]pyridin-2-yl)amino)-N-methylpyridazine-3-carboxamide] | >1104 |
| 14.9 | 4.36 | 1.3 | 0.053 | 25 | CNC(=O)c1nnc(NC(=O)C2CC2)cc1Nc1nc2ccc(N3CCC3CO)cn2n1 (centres unmarked) [Example J2, 6-(cyclopro-panecar-boxamido)-4-((6-(2-(hydroxy-methyl)azetidin-1-yl)-[1,2,4]triazolo[1,5-a]pyridin-2-yl)amino)-N-methyl-pyridazine-3-carboxamide] | 292 |
| 63 | > 10 | 2.6 | 0.26 | 10 | CNC(=O)c1nnc(NC(=O)C2CC2)cc1Nc1nc2ccc(C3CN(C)C3)cn2n1 [Example M1, 6-(cyclopropanecarboxamido)-N-methyl-4-((6-(1-methylazetidin-3-yl)-[1,2,4]triazolo[1,5-a]pyridin-2-yl)amino)pyridazine-3-carboxamide] | >158 |
| 105 | > 10 | 8.4 | 0.14 | 60 | CNC(=O)c1nnc(NC(=O)C2CC2)cc1Nc1nc2ccc(N3CC(Oc4ccc(F)cc4F)C3)cn2n1 [Example E19, 6-(cyclopropanecar-boxamido)-4-((6-(3-(2,4-difluorophenoxy)azetidin-1-yl)-[1,2,4]triazolo[1,5-a]pyridin-2-yl)amino)-N-methylpyridazine-3-carboxamide] | >95 |
| 50.9 | > 10 | 3.7 | 0.093 | 40 | CNC(=O)c1nnc(NC(=O)C2CC2)cc1Nc1nc2ccc(C3CN(S(C)(=O)=O)C3)cn2n1 [Example L1, 6-(cyclopropanecarboxamido)-N-methyl-4-((6-(1-(methylsulfonyl)azetidin-3-yl)-[1,2,4]triazolo[1,5-a]pyridin-2-yl)amino)pyridazine-3-carboxamide] | >196 |
